Experimental data from the supplement of paper PMC10733146.

How the values were obtained:
Experiment in all cases: viability relative to DMSO control (fraction); higher = less drug effect (more viable cells)
Conditions in all cases: 48 h
Vincristine = compound: CC[C@]1(O)C[C@H]2CN(CCc3c([nH]c4ccccc34)[C@@](C(=O)OC)(c3cc4c(cc3OC)N(C=O)[C@H]3[C@@](O)(C(=O)OC)[C@H](OC(C)=O)[C@]5(CC)C=CCN6CC[C@]43[C@@H]65)C2)C1 [Vincristine]
Method in brief: (§1)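 In 384-well plates with compounds pre-plated at five concentrations (one well per concentration), primary mononuclear tumour cells were plated at 4 × 10^4 cells per well. The cells came from blood or bone marrow by Ficoll isolation or from processed lymph node, and were used fresh or cryopreserved. Culture ran for 48 h at 37 °C and 5% CO2 in RPMI-1640 containing penicillin/streptomycin, L-glutamine and human serum. Viability was read as CellTiter-Glo luminescence, normalised to the median of 16 inner DMSO wells.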

Pentostatin = compound: OC[C@H]1O[C@@H](n2cnc3c2N=CNC[C@H]3O)C[C@@H]1O [Pentostatin]
Method in brief: as §1

Pralatrexate = compound: C#CCC(Cc1cnc2nc(N)nc(N)c2n1)c1ccc(C(=O)N[C@@H](CCC(=O)O)C(=O)O)cc1 [Pralatrexate]
Method in brief: as §1

Vemurafenib = compound: CCCS(=O)(=O)Nc1ccc(F)c(C(=O)c2c[nH]c3ncc(-c4ccc(Cl)cc4)cc23)c1F [Vemurafenib]
Method in brief: as §1

Bortezomib = compound: CC(C)C[C@H](NC(=O)[C@H](Cc1ccccc1)NC(=O)c1cnccn1)B(O)O [Bortezomib]
Method in brief: as §1

Idarubicin = compound: CC(=O)[C@]1(O)Cc2c(O)c3c(c(O)c2[C@@H](O[C@H]2C[C@H](N)[C@H](O)[C@H](C)O2)C1)C(=O)c1ccccc1C3=O [Idarubicin]
Method in brief: as §1

8-Azaguanin = compound: Nc1nc2n[nH]nc2c(=O)[nH]1 [8-Azaguanin]
Method in brief: as §1

Imatinib = compound: Cc1ccc(NC(=O)c2ccc(CN3CCN(C)CC3)cc2)cc1Nc1nccc(-c2cccnc2)n1 [Imatinib]
Method in brief: as §1

AG-221 (Enasidinib) = compound: CC(C)(O)CNc1nc(Nc2ccnc(C(F)(F)F)c2)nc(-c2cccc(C(F)(F)F)n2)n1 [AG-221 (Enasidinib)]
Method in brief: as §1

Iniparib = compound: NC(=O)c1ccc(I)c([N+](=O)[O-])c1 [Iniparib]
Method in brief: as §1

Panobinostat = compound: Cc1[nH]c2ccccc2c1CCNCc1ccc(/C=C/C(=O)NO)cc1 [Panobinostat]
Method in brief: as §1

AZD7762 = compound: NC(=O)Nc1cc(-c2cccc(F)c2)sc1C(=O)N[C@H]1CCCNC1 [AZD7762]
Method in brief: as §1

Ribociclib = compound: CN(C)C(=O)c1cc2cnc(Nc3ccc(N4CCNCC4)cn3)nc2n1C1CCCC1 [Ribociclib]
Method in brief: as §1

Rigosertib = compound: COc1cc(OC)c(/C=C/S(=O)(=O)Cc2ccc(OC)c(NCC(=O)O)c2)c(OC)c1 [Rigosertib]
Method in brief: as §1

Nelarabine = compound: COc1nc(N)nc2c1ncn2[C@@H]1O[C@H](CO)[C@@H](O)[C@@H]1O [Nelarabine]
Method in brief: as §1

## primary AML patient cells (S091)
Vincristine; 0.016 µM
  viability: 1.24
Vincristine; 0.08 µM
  viability: 1.03
Vincristine; 0.4 µM
  viability: 0.882
Vincristine; 2 µM
  viability: 0.713
Vincristine; 10 µM
  viability: 0.784
Pentostatin; 0.03 µM
  viability: 0.85
Pentostatin; 0.15 µM
  viability: 0.737
Pentostatin; 0.75 µM
  viability: 0.826
Pentostatin; 3.75 µM
  viability: 0.782
Pentostatin; 18.76 µM
  viability: 0.658
Pralatrexate; 0.024 µM
  viability: 0.849
Pralatrexate; 0.12 µM
  viability: 0.986
Pralatrexate; 0.6 µM
  viability: 0.917
Pralatrexate; 3 µM
  viability: 0.798
Pralatrexate; 15 µM
  viability: 0.899
Vemurafenib; 0.024 µM
  viability: 1
Vemurafenib; 0.12 µM
  viability: 1.66
Vemurafenib; 0.6 µM
  viability: 1.12
Vemurafenib; 3 µM
  viability: 1.4
Vemurafenib; 15 µM
  viability: 1.9
Bortezomib; 0.008 µM
  viability: 1.06
Bortezomib; 0.04 µM
  viability: 0.793
Bortezomib; 0.2 µM
  viability: 1.05
Bortezomib; 1 µM
  viability: 0.809
Bortezomib; 5 µM
  viability: 1.06
Idarubicin; 0.024 µM
  viability: 0.518
Idarubicin; 0.12 µM
  viability: 0.477
Idarubicin; 0.6 µM
  viability: 0.153
Idarubicin; 3 µM
  viability: 0.0634
Idarubicin; 15 µM
  viability: 0.0604
8-Azaguanin; 0.032 µM
  viability: 0.841
8-Azaguanin; 0.16 µM
  viability: 0.89
8-Azaguanin; 0.8 µM
  viability: 0.781
8-Azaguanin; 4 µM
  viability: 0.443
8-Azaguanin; 20 µM
  viability: 0.309
Imatinib; 0.016 µM
  viability: 1.04
Imatinib; 0.08 µM
  viability: 0.953
Imatinib; 0.4 µM
  viability: 1.05
Imatinib; 10 µM
  viability: 1.24
AG-221 (Enasidinib); 0.024 µM
  viability: 0.827
AG-221 (Enasidinib); 0.12 µM
  viability: 1.01
AG-221 (Enasidinib); 0.6 µM
  viability: 0.913
AG-221 (Enasidinib); 3 µM
  viability: 0.895
AG-221 (Enasidinib); 15 µM
  viability: 0.847
Iniparib; 0.024 µM
  viability: 1.09
Iniparib; 0.12 µM
  viability: 1.01
Iniparib; 0.6 µM
  viability: 0.901
Iniparib; 3 µM
  viability: 0.975
Iniparib; 15 µM
  viability: 0.811
Panobinostat; 0.00064 µM
  viability: 0.844
Panobinostat; 0.0032 µM
  viability: 0.473
Panobinostat; 0.016 µM
  viability: 0.173
Panobinostat; 0.08 µM
  viability: 0.138
Panobinostat; 0.4 µM
  viability: 0.133
AZD7762; 0.024 µM
  viability: 1.07
AZD7762; 0.12 µM
  viability: 0.837
AZD7762; 0.6 µM
  viability: 0.69
AZD7762; 3 µM
  viability: 0.464
AZD7762; 15 µM
  viability: 0.348
Ribociclib; 0.024 µM
  viability: 0.846
Ribociclib; 0.12 µM
  viability: 0.916
Ribociclib; 0.6 µM
  viability: 0.809
Ribociclib; 3 µM
  viability: 0.765
Ribociclib; 15 µM
  viability: 0.699
Rigosertib; 0.008 µM
  viability: 0.971
Rigosertib; 0.04 µM
  viability: 1.06
Rigosertib; 0.2 µM
  viability: 0.961
Rigosertib; 1 µM
  viability: 0.899
Rigosertib; 5 µM
  viability: 1.05
Nelarabine; 0.024 µM
  viability: 0.918
Nelarabine; 0.12 µM
  viability: 0.929
Nelarabine; 0.6 µM
  viability: 0.852
Nelarabine; 3 µM
  viability: 0.784
Nelarabine; 15 µM
  viability: 0.656

## primary B-PLL patient cells (S016)
Vincristine; 0.016 µM
  viability: 0.225
Vincristine; 0.08 µM
  viability: 0.209
Vincristine; 0.4 µM
  viability: 0.161
Vincristine; 2 µM
  viability: 0.125
Vincristine; 10 µM
  viability: 0.0588
Pentostatin; 0.03 µM
  viability: 0.743
Pentostatin; 0.15 µM
  viability: 0.765
Pentostatin; 0.75 µM
  viability: 1.07
Pentostatin; 3.75 µM
  viability: 0.894
Pentostatin; 18.76 µM
  viability: 0.736
Pralatrexate; 0.024 µM
  viability: 0.982
Pralatrexate; 0.12 µM
  viability: 0.945
Pralatrexate; 0.6 µM
  viability: 0.979
Pralatrexate; 3 µM
  viability: 0.909
Pralatrexate; 15 µM
  viability: 1
Vemurafenib; 0.024 µM
  viability: 0.934
Vemurafenib; 0.12 µM
  viability: 0.948
Vemurafenib; 0.6 µM
  viability: 1.02
Vemurafenib; 3 µM
  viability: 1.01
Vemurafenib; 15 µM
  viability: 0.981
Bortezomib; 0.008 µM
  viability: 0.99
Bortezomib; 0.04 µM
  viability: 1.07
Bortezomib; 0.2 µM
  viability: 1.01
Bortezomib; 1 µM
  viability: 1.19
Bortezomib; 5 µM
  viability: 1.02
Idarubicin; 0.024 µM
  viability: 0.188
Idarubicin; 0.12 µM
  viability: 0.0649
Idarubicin; 0.6 µM
  viability: 0.0214
Idarubicin; 3 µM
  viability: 0.0129
Idarubicin; 15 µM
  viability: 0.00911
8-Azaguanin; 0.032 µM
  viability: 0.998
8-Azaguanin; 0.16 µM
  viability: 1.02
8-Azaguanin; 0.8 µM
  viability: 0.731
8-Azaguanin; 4 µM
  viability: 0.35
8-Azaguanin; 20 µM
  viability: 0.118
Imatinib; 0.016 µM
  viability: 1.07
Imatinib; 0.08 µM
  viability: 0.938
Imatinib; 0.4 µM
  viability: 1.1
Imatinib; 2 µM
  viability: 0.793
Imatinib; 10 µM
  viability: 0.66
AG-221 (Enasidinib); 0.024 µM
  viability: 0.973
AG-221 (Enasidinib); 0.12 µM
  viability: 0.917
AG-221 (Enasidinib); 0.6 µM
  viability: 1.19
AG-221 (Enasidinib); 3 µM
  viability: 0.892
AG-221 (Enasidinib); 15 µM
  viability: 0.928
Iniparib; 0.024 µM
  viability: 1.1
Iniparib; 0.12 µM
  viability: 1.01
Iniparib; 0.6 µM
  viability: 0.996
Iniparib; 3 µM
  viability: 0.921
Iniparib; 15 µM
  viability: 0.882
Panobinostat; 0.00064 µM
  viability: 0.824
Panobinostat; 0.0032 µM
  viability: 0.424
Panobinostat; 0.016 µM
  viability: 0.0534
Panobinostat; 0.08 µM
  viability: 0.0414
Panobinostat; 0.4 µM
  viability: 0.0709
AZD7762; 0.024 µM
  viability: 0.508
AZD7762; 0.12 µM
  viability: 0.619
AZD7762; 0.6 µM
  viability: 0.702
AZD7762; 3 µM
  viability: 0.758
AZD7762; 15 µM
  viability: 0.358
Ribociclib; 0.024 µM
  viability: 1.01
Ribociclib; 0.12 µM
  viability: 1.03
Ribociclib; 0.6 µM
  viability: 1.09
Ribociclib; 3 µM
  viability: 1.05
Ribociclib; 15 µM
  viability: 0.84
Rigosertib; 0.008 µM
  viability: 0.976
Rigosertib; 0.04 µM
  viability: 1.04
Rigosertib; 0.2 µM
  viability: 0.948
Rigosertib; 1 µM
  viability: 0.961
Rigosertib; 5 µM
  viability: 0.455
Nelarabine; 0.024 µM
  viability: 0.896
Nelarabine; 0.12 µM
  viability: 1.03
Nelarabine; 0.6 µM
  viability: 0.898
Nelarabine; 3 µM
  viability: 1.04
Nelarabine; 15 µM
  viability: 0.674
